In patent US5935973A, “Heterocyclcarboxamide derivatives and their use as therapeutic agents” (Knoll Aktiengesellschaft, priority 1995, dated 1999):

What was measured:
α2D-adrenoceptors = target: T1, α2D-adrenoceptors (Rattus norvegicus, UniProt P22909); experiment: inhibition of tritiated idazoxan binding to α2D-adrenoceptors in rat frontal cortical tissue; details: rat frontal cortex; for inhibition at 1 µM: at 10^-6 M, tritiated idazoxan, read-out: % displacement of radio ligand, α2D; for Ki: tritiated idazoxan 1 nM, 0° C., 75 min
T1 construct: Frontal cortical tissue from the brains of male Charles River CD rats; from tissue; host or cells: rat frontal cortex membranes
T1 sequence (P22909 1-465): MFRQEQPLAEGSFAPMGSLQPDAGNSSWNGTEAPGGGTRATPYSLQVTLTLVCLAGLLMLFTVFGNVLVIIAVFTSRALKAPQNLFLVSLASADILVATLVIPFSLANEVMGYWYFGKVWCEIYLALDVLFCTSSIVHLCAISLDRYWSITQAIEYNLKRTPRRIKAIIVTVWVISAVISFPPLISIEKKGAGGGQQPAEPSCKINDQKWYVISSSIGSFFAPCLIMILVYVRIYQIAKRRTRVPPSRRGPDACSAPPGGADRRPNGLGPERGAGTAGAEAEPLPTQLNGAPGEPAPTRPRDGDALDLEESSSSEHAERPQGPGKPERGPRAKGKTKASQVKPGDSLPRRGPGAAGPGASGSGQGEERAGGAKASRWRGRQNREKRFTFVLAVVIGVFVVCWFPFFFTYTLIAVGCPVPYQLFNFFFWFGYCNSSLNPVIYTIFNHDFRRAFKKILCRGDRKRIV
Method: Frontal cortical tissue from the brains of male Charles River CD rats weighing between 150-250 g were homogenised in ice-cold 0.25 M sucrose (1:30 w/v) and centrifuged at 1,000 g at 4° C. for 12 minutes. The supernatant was stored on ice and the pellet was rehomogenised in 0.25 M sucrose (1:15 w/v) and centrifuged at 850 g at 4° C. for 12 minutes. Combined supernatants were diluted with 5 mM Tris-HCl (pH 7.5) containing 5 mM ethylenediamine tetraacetic acid (EDTA) readjusted to pH 7.5 (at 25° C.) with 1 M sodium hydroxide to 1:80 w/v, and centrifuged at 30,000 g at 4° C. for 10 minutes. The resulting pellet was resuspended in 50 mM Tris-HCl (pH 7.5) containing 5.68 mM L-ascorbic acid and 0.5 mM EDTA readjusted to pH 7.5 (at 25° C.) with 1 M sodium hydroxide, and centrifuged at 30,000 g for 10 minutes. The final pellet was resuspended in 50 mM Tris-HCl (pH 7.5) containing 5.68 mM L-ascorbic acid and 5 mM EDTA (equivalent to 12.5 mg wet weight of tissue/ml) and used immediately in the binding assay. Aliquots (400 μl; equivalent to 5 mg wet weight of tissue/tube) of this suspension were added to tubes containing the ligand (50 μl; 1 nM) and distilled water (50 μl; total binding) or phentolamine (50 μl; 5 μM; non-specificbinding) or test compound (50 μl; at a single concentration of 10^-6 M or at 10 concentrations ranging from 10^-11 -10^-3 M). The ligand was tritiated idazoxan ((1,4-[6,7(n)-^3 H]benzodioxan-2-yl)-2-imidazoline hydrochloride) and the mixture was incubated at 0° C. for 75 minutes before the incubation was terminated by rapid filtration.
The filters were washed with ice-cold Tris-HCl buffer and dried. The filters were punched out into vials, scintillation fluid added and radioactivity determined by liquid scintillation counting. […] Displacement curves were then produced for those compounds which displaced ≥50% of specific binding of the tritiated ligand at 10^-6 M using a range of concentrations of the compound. The concentration which gave 50% inhibition of specific binding (IC50) was obtained from the curve. The inhibition coefficient Ki was then calculated using the formula [formula] in which [ligand] is the concentration of the tritiated ligand used and KD is the equilibrium dissociation constant for the ligand.

5-HT1A receptors = target: T2, 5-HT1A receptors (Rattus norvegicus, UniProt P19327); experiment: inhibition of [3H]8-OH-DPAT binding to 5-HT1A receptors in rat hippocampal tissue; details: rat hippocampus; for Ki: [3H]8-OH-DPAT 2 nM, 25° C., 30 min; for inhibition at 1 µM: at 10^-6 M, [3H]8-OH-DPAT, read-out: % displacement of radio ligand, 5-HT1A
T2 construct: Hippocampal tissue from the brains of male Sprague-Dawley rats; from tissue; host or cells: rat hippocampus membranes
T2 sequence (P19327 1-422): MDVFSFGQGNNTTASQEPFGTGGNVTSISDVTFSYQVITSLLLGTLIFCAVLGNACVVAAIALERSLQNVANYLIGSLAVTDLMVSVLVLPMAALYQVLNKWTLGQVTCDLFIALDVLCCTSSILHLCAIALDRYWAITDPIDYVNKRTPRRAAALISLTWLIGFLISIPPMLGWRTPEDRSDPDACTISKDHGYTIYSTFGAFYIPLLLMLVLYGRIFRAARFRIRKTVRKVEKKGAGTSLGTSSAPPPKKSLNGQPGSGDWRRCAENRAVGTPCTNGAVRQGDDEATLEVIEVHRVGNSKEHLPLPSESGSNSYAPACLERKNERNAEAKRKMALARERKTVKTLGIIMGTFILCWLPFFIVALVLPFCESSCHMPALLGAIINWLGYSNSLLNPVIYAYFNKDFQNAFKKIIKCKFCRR
Method: Hippocampal tissue from the brains of male Sprague-Dawley rats (Charles River; weight range 150-250 g) was homogenised in ice-cold 50 mM Tris-HCl buffer (pH 7.7 when measured at 25° C., 1:40 w/v) and centrifuged at 30,000 g at 4° C. for 10 minutes. The pellet was rehomogenised in the same buffer, incubated at 37° C. for 10 minutes and centrifuged at 30,000 g at 4° C. for 10 minutes. The final pellet was resuspended in 50 mM Tris-HCl buffer (pH 7.7) containing 4 mM CaCl2, 0.1% L-ascorbic acid and 10 μM pargyline hydrochloride (equivalent to 6.25 mg wet weight of tissue/ml) and used immediately in the binding assay. Aliquots (400 μl; equivalent to 2.5 mg wet weight of tissue/tube) of this suspension were added to tubes containing the ligand (50 μl; 2 nM) and distilled water (50 μl total binding) or 5-HT (50 μl; 10 μM; non-specific binding) or test compound (50 μl; at a single concentration of 10^-6 M or at 10 concentrations ranging from 10^-11 -10^-3 M). The ligand was [^3 H]8-hydroxy-2-(dipropylamino)tetralin ([^3 H]8-OH-DPAT) and the mixture was incubated at 25° C. for 30 minutes before the incubation was terminated by rapid filtration.
The filters were washed with ice-cold Tris-HCl buffer and dried. The filters were punched out into vials, scintillation fluid added and radioactivity determined by liquid scintillation counting. The percentage displacement of specific binding of the tritiated ligand was calculated for the single concentration (10^-6 M) of test compound. Displacement curves were then produced for those compounds which displaced ≥50% of specific binding of the tritiated ligand at 10^-6 M using a range of concentrations of the compound. The concentration which gave 50% inhibition of specific binding (IC50) was obtained from the curve. The inhibition coefficient Ki was then calculated using the formula [formula] in which [ligand] is the concentration of the tritiated ligand used and KD is the equilibrium dissociation constant for the ligand.

Row | inhibition at 1 µM (α2D-adrenoceptors) | Ki (5-HT1A receptors) | inhibition at 1 µM (5-HT1A receptors) | Ki (α2D-adrenoceptors) | SMILES
1 | 99% | 63 nM |  |  | Nc1ccsc1C(=O)NCC1CCN(CC2COc3ccccc3O2)CC1 (centres unmarked) [Example 16, 3-amino-N-{[1-(1,4-benzodioxan-2-ylmethyl)-4-piperidyl]methyl}thiophene-2-carboxamide]
2 | 100% | 12 nM |  |  | O=C(NCC1CCN(CC2COc3ccccc3O2)CC1)c1cccc2cccnc12 (centres unmarked) [Example 8, N-{[1-(1,4-benzodioxan-2-ylmethyl)-4-piperidyl]methyl}quinoline-8-carboxamide]
3 | 95% | 70 nM |  |  | O=C(NCC1CCN(C[C@H]2COc3ccc(Cl)cc3O2)CC1)c1cccc2cccnc12 [Example 23, (S)-N-{[1-(7-chloro-1,4-benzodioxan-2-ylmethyl)-4-piperidyl]methyl}quinoline-8-carboxamide]
4 | 97% | 54 nM |  |  | Cc1ncccc1C(=O)NCC1CCN(C[C@H]2COc3cccc(Cl)c3O2)CC1 [Example 9, (S)-N-{[1-(8-chloro-1,4-benzodioxan-2-ylmethyl)-4-piperidyl]methyl}-2-methylpyridine-3-carboxamide]
5 | 98% |  | 90% |  | Nc1ncccc1C(=O)NCC1CCN(CC2COc3ccccc3O2)CC1 (centres unmarked) [Example 4, 2-amino-N-{[1-(1,4-benzodioxan-2-ylmethyl)-4-piperidyl]methyl}pyridine-3-carboxamide]
6 | 96% | 94 nM |  |  | Cc1ccc2c(c1)O[C@@H](CN1CCC(CNC(=O)c3cccnc3N)CC1)CO2 [Example 5, (S)-2-amino-N-{[1-(7-methyl-1,4-benzodioxan-2-ylmethyl)-4-piperidyl]methyl}pyridine-3-carboxamide]
7 |  | 32 nM |  | 27 nM | Nc1ccsc1C(=O)NCC1CCN(C[C@H]2COc3ccc(Cl)cc3O2)CC1 [Example 17, (S)-3-amino-N-{[1-(7-chloro-1,4-benzodioxan-2-ylmethyl)-4-piperidyl]methyl}thiophene-2-carboxamide]
8 |  | 38 nM |  | 3.6 nM | COc1ccc2c(c1)O[C@@H](CN1CCC(CNC(=O)c3cccnc3N)CC1)CO2 [Example 7, (S)-2-amino-N{[1-(7-methoxy-1,4-benzodioxan-2-ylmethyl)-4-piperidyl]methyl}-pyridine-3-carboxamide]
9 |  | 27 nM |  | 4.4 nM | O=C(NCC1CCN(CC2COc3ccccc3O2)CC1)c1ccccn1 (centres unmarked) [Example 6, N-{[1-(1,4-benzodioxan-2-ylmethyl)-4-piperidyl]methyl}pyridine-2-carboxamide]
10 | 98% | 41 nM |  |  | Nc1ncccc1C(=O)NCC1CCN(C[C@H]2COc3cccc(C(F)(F)F)c3O2)CC1 [Example 20, (S)-2-amino-N-{[1-(8-trifluoromethyl-1,4-benzodioxan-2-ylmethyl)-4-piperidyl]methyl}pyridine-3-carboxamide]
11 | 99% | 35 nM |  |  | O=C(NCC1CCN(C[C@H]2COc3ccc(Cl)cc3O2)CC1)c1cccnc1 [Example 22, (S)-N-{[1-(7-chloro-1,4-benzodioxan-2-ylmethyl)-4-piperidyl]methyl}pyridine-3-carboxamide]
12 | 89% | 83 nM |  |  | Cc1ncccc1C(=O)NCC1CCN(C[C@H]2COc3ccc(Cl)cc3O2)CC1 [Example 18, (S)-N-{[1-(7-chloro-1,4-benzodioxan-2-ylmethyl)-4-piperidyl]methyl}-2-methylpyridine-3-carboxamide]
13 | 98% |  | 97% |  | Nc1ncccc1C(=O)NCC1CCN(C[C@H]2COc3cccc(Cl)c3O2)CC1 [Example 2, (S)-2-amino-N-{[1-(8-chloro-1,4-benzodioxan-2-ylmethyl)-4-piperidyl]methyl}-pyridine-3-carboxamide]
14 | 95% | 16 nM |  |  | O=C(NCC1CCN(C[C@H]2COc3ccc(Cl)cc3O2)CC1)c1ccccn1 [Example 12, (S)-N-{[1-(7-chloro-1,4-benzodioxan-2-ylmethyl)-4-piperidyl]methyl}pyridine-2-carboxamide]
15 | 99% | 18 nM |  |  | Nc1ncccc1C(=O)NCC1CCN(C[C@H]2COc3cccc(F)c3O2)CC1 [Example 3, (S)-(-)-2-amino-N-{[1-(8-fluoro-1,4-benzodioxan-2-ylmethyl)-4-piperidyl]methyl}pyridine-3-carboxamide]
16 | 97% | 41.5 nM |  |  | Nc1ncccc1C(=O)NCC1CCN(C[C@H]2COc3ccc(Cl)cc3O2)CC1 [Example 1, (S)-(-)-2-amino-N-{[1-(7-chloro-1,4-benzodioxan-2-ylmethyl)-4-piperidyl]methyl}pyridine-3-carboxamide]
17 | 98% | 19 nM |  |  | COc1cccc2c1OC(CN1CCC(CNC(=O)c3cccnc3N)CC1)CO2 (centres unmarked) [Example 11, 2-amino-N-{[1-(8-methoxy-1,4-benzodioxan-2-ylmethyl)-4-piperidyl]methyl}pyridine-3-carboxamide]
18 | 99% | 40.8 nM |  |  | Nc1ncccc1C(=O)NCC1CCN(C[C@H]2COc3ccccc3O2)CC1 [Example 15, (S)-2-amino-N-{[1-(1,4-benzodioxan-2-ylmethyl)-4-piperidyl]methyl}pyridine-3-carboxamide]
19 | 99% | 38 nM |  |  | Cc1cccc2c1O[C@@H](CN1CCC(CNC(=O)c3cccnc3N)CC1)CO2 [Example 13, (S)-2-amino-N-{[1-(8-methyl-1,4-benzodioxan-2-ylmethyl)-4-piperidyl]methyl}pyridine-3-carboxamide]
